Conditions: Liquid; for speed of sound: Pulse-echo method

CCCCCCCl [1-chlorohexane]
Conditions	mass density [kg/m3]	speed of sound [m/s]
293.15 K, 100 kPa	878.5	1219.1
293.15 K, 5000 kPa	884.2	1240.5
293.15 K, 9910 kPa	887	1264.5
293.15 K, 19720 kPa	894.7	1310
293.15 K, 29530 kPa	901.8	1352.6
293.15 K, 39340 kPa	908.4	1392.6
293.15 K, 49150 kPa	914.6	1430.1
293.15 K, 58960 kPa	920.4	1465.7
293.15 K, 68770 kPa	925.9	1499.3
293.15 K, 78580 kPa	931.1	1531.5
293.15 K, 88390 kPa	936	1562.3
293.15 K, 98200 kPa	940.7	1591.9
293.15 K, 108000 kPa	945.1	1620.6
293.15 K, 117800 kPa	949.4	1648.2
293.15 K, 127600 kPa	953.4	1675.2
293.15 K, 137400 kPa	957.3	1701.5
293.15 K, 147200 kPa	961.1	1727.1
293.15 K, 157100 kPa	964.7	1752.2
293.15 K, 166900 kPa	968.1	1776.7
293.15 K, 176700 kPa	971.5	1800.6
293.15 K, 186500 kPa	974.7	1824
293.15 K, 196300 kPa	977.9	1846.5
313.15 K, 100 kPa	859.4	1140.7
313.15 K, 5000 kPa	865	1166.4
313.15 K, 9910 kPa	869.8	1191.8
313.15 K, 19720 kPa	878.3	1240.1
313.15 K, 29530 kPa	886.2	1285.3
313.15 K, 39340 kPa	893.4	1327.6
313.15 K, 49150 kPa	900.1	1367.4
313.15 K, 58960 kPa	906.4	1405
313.15 K, 68770 kPa	912.3	1440.6
313.15 K, 78580 kPa	917.9	1474.6
313.15 K, 88390 kPa	923.1	1507
313.15 K, 98200 kPa	928.1	1538
313.15 K, 108000 kPa	932.8	1567.9
313.15 K, 117800 kPa	937.3	1596.7
313.15 K, 127600 kPa	941.6	1624.5
313.15 K, 137400 kPa	945.7	1651.4
313.15 K, 147200 kPa	949.7	1677.5
313.15 K, 157100 kPa	953.5	1702.6
313.15 K, 166900 kPa	957.1	1726.9
313.15 K, 176700 kPa	960.6	1750.3
313.15 K, 186500 kPa	964	1772.6
313.15 K, 196300 kPa	967.2	1793.6
333.15 K, 100 kPa	840.3	1068.8
333.15 K, 5000 kPa	847.1	1097.1
333.15 K, 9910 kPa	851.9	1124.4
333.15 K, 19720 kPa	861.5	1176
333.15 K, 29530 kPa	870.3	1224
333.15 K, 39340 kPa	878.3	1268.8
333.15 K, 49150 kPa	885.7	1310.8
333.15 K, 58960 kPa	892.6	1350.4
333.15 K, 68770 kPa	899	1387.7
333.15 K, 78580 kPa	905	1423.2
333.15 K, 88390 kPa	910.7	1457
333.15 K, 98200 kPa	916	1489.4
333.15 K, 108000 kPa	921.1	1520.4
333.15 K, 117800 kPa	925.9	1550.3
333.15 K, 127600 kPa	930.4	1579.1
333.15 K, 137400 kPa	934.8	1607
333.15 K, 147200 kPa	939	1633.9
333.15 K, 157100 kPa	943	1659.9
333.15 K, 166900 kPa	946.8	1684.9
333.15 K, 176700 kPa	950.5	1708.9
333.15 K, 186500 kPa	954	1731.8
333.15 K, 196300 kPa	957.4	1753.5
353.15 K, 100 kPa	821.3	995
353.15 K, 5000 kPa	828.1	1026.2
353.15 K, 9910 kPa	833.7	1055.4
353.15 K, 19720 kPa	844.5	1110.7
353.15 K, 29530 kPa	854.3	1162
353.15 K, 39340 kPa	863.1	1209.8
353.15 K, 49150 kPa	871.2	1254.5
353.15 K, 58960 kPa	878.7	1296.3
353.15 K, 68770 kPa	885.6	1335.8
353.15 K, 78580 kPa	892.1	1373
353.15 K, 88390 kPa	898.2	1408.3
353.15 K, 98200 kPa	903.8	1441.9
353.15 K, 108000 kPa	909.2	1474
353.15 K, 117800 kPa	914.3	1504.7
353.15 K, 127600 kPa	919.1	1534.3
353.15 K, 137400 kPa	923.7	1562.7
353.15 K, 147200 kPa	928.1	1590.1
353.15 K, 157100 kPa	932.3	1616.4
353.15 K, 166900 kPa	936.3	1641.8
353.15 K, 176700 kPa	940.1	1666.1
353.15 K, 186500 kPa	943.8	1689.4
353.15 K, 196300 kPa	947.4	1711.4
373.15 K, 100 kPa	802.2	922.9
373.15 K, 5000 kPa	809.3	957
373.15 K, 9910 kPa	815.2	989.6
373.15 K, 19720 kPa	827.4	1050.4
373.15 K, 29530 kPa	838.3	1105.8
373.15 K, 39340 kPa	848	1156.5
373.15 K, 49150 kPa	856.9	1203.2
373.15 K, 58960 kPa	865	1246.3
373.15 K, 68770 kPa	872.5	1286.9
373.15 K, 78580 kPa	879.4	1324.8
373.15 K, 88390 kPa	885.9	1360.8
373.15 K, 98200 kPa	891.9	1395.1
373.15 K, 108000 kPa	897.6	1427.9
373.15 K, 117800 kPa	903	1459.6
373.15 K, 127600 kPa	908.1	1490.1
373.15 K, 137400 kPa	912.9	1519.6
373.15 K, 147200 kPa	917.5	1548.1
373.15 K, 157100 kPa	921.9	1575.5
373.15 K, 166900 kPa	926.1	1601.7
373.15 K, 176700 kPa	930.1	1626.5
373.15 K, 186500 kPa	934	1649.5
373.15 K, 196300 kPa	937.7	1670.6
393.15 K, 100 kPa	780.7	853.3
393.15 K, 5000 kPa	789.2	893.8
393.15 K, 9910 kPa	796.7	928.6
393.15 K, 19720 kPa	810.5	993.2
393.15 K, 29530 kPa	822.6	1051.8
393.15 K, 39340 kPa	833.3	1105.2
393.15 K, 49150 kPa	843	1154.2
393.15 K, 58960 kPa	851.8	1199.4
393.15 K, 68770 kPa	859.8	1241.4
393.15 K, 78580 kPa	867.2	1280.8
393.15 K, 88390 kPa	874.1	1318
393.15 K, 98200 kPa	880.6	1353.3
393.15 K, 108000 kPa	886.6	1387.2
393.15 K, 117800 kPa	892.3	1419.7
393.15 K, 127600 kPa	897.6	1451.2
393.15 K, 137400 kPa	902.7	1481.6
393.15 K, 147200 kPa	907.5	1511.1
393.15 K, 157100 kPa	912.1	1539.5
393.15 K, 166900 kPa	916.4	1566.9
393.15 K, 176700 kPa	920.6	1592.8
393.15 K, 186500 kPa	924.6	1617.2
393.15 K, 196300 kPa	928.4	1639.7
413.15 K, 100 kPa	759.1	784
413.15 K, 5000 kPa	769.6	829.4
413.15 K, 9910 kPa	777.6	867.7
413.15 K, 19720 kPa	793.3	938.1
413.15 K, 29530 kPa	806.8	1001.1
413.15 K, 39340 kPa	818.6	1057.7
413.15 K, 49150 kPa	829.2	1109
413.15 K, 58960 kPa	838.7	1155.8
413.15 K, 68770 kPa	847.4	1198.9
413.15 K, 78580 kPa	855.3	1239.1
413.15 K, 88390 kPa	862.7	1276.9
413.15 K, 98200 kPa	869.5	1312.8
413.15 K, 108000 kPa	875.8	1347.4
413.15 K, 117800 kPa	881.8	1380.6
413.15 K, 127600 kPa	887.4	1413
413.15 K, 137400 kPa	892.7	1444.5
413.15 K, 147200 kPa	897.8	1475.2
413.15 K, 157100 kPa	902.5	1504.9
413.15 K, 166900 kPa	907.1	1533.7
413.15 K, 176700 kPa	911.4	1560.9
413.15 K, 186500 kPa	915.6	1586.4
413.15 K, 196300 kPa	919.5	1609.7

Source: the NIST ThermoML archive (doi:10.1021/je0503204)
